# Legend:
# Solubility in solvents = format: physicochemical
# Source text: A 2.5 gram sample of a red raspberry seed extract in a dry powder form was split into two fractions, one combined 1.25 grams of the dry extract with 11.25 grams of water to create a 10% aqueous solution of the extract. […] Combining 1.25 grams of the dry extract with about 11.25 grams of isopropyl alcohol (91%) produced an about 10% alcohol solution.
# Using pure water was explored in extraction experiments with cranberry seed powder. The advantages of using water are essentially zero cost and toxicity. It is also a very polar solvent and will not extract any residual oils (which are very non-polar compounds) from the seed powders. The limitations of using water are that it gives quite low yields in extractions at room temperature and only dissolved the most polar compounds from the seed powders, leaving most of the medium polarity materials behind. It is possible that this could be improved by heating. […] Simply filtering the mixture through inexpensive filter paper by gravity or mild vacuum will be unsuccessful. One solution that worked was mixing in filtering media (diatomaceous earth) and then vacuum filtering through a bed of the same filtering medium. To completely clarify the mixture, an additional treatment with activated carbon and further vacuum filtering through a bed of diatomaceous earth was effective. Given the limitations of water extraction, it was not used extensively. […]
# [1] = Solubility in the enzyme assay; format: physicochemical; details: aqueous pH 7.00 phosphate buffer with DMSO stock
structure (smiles),measurement,setting,value
O=c1oc2c(O)c(O)cc3c(=O)oc4c(O)c(O)cc1c4c23 [ellagic acid],solubility in water,Solubility in solvents; high pH,very water soluble
same,solubility in water,Solubility in solvents; neutral pH,only slightly soluble
same,solubility in the enzyme assay,[1],highly insoluble

# From patent US20250248924A1, “COMPOUNDS FROM FRUIT SEED EXTRACTS FOR MELANIN REDUCTION IN SKIN” (priority 2024, published 2025)
